Results taken from PMC8306578, “[^68Ga]Ga-DFO-c(RGDyK): Synthesis and Evaluation of Its Potential for Tumor Imaging in Mice” (International Journal of Molecular Sciences, 2021).
Read-outs that look alike come from different tables or passages of the source.

Legend:
[1] = assay type: physicochemical; settings: pH 7.4
Experimental: Aliquots of 50 μL were added to 450 μL PBS and 500 μL octanol, and the mixture was vigorously vortexed for 20 min at 1500 rpm. The aqueous and organic solvents were separated by centrifugation (2 min at 2000× g), and 50 μL aliquots of both layers were collected and measured in a gamma counter (PerkinElmer, Waltham, MA, USA). Log p values were calculated from the obtained data in Microsoft Office Excel 2010 (Microsoft, Redmond WA, USA) (mean of n = 6).

[2] = tested on: U-87 MG cells; assay: Cell uptake assay in U-87 MG cells; assay type: cell-based, human; settings: 7 nM tracer, 500-fold excess (3.5 µM) inhibitor, 30-90 min, 37 °C
Experimental: (§1) Human glioblastoma multiforme U-87 MG cells (ATCC, Manassas, VA, USA) were cultured in Dulbecco’s Modified Eagle Medium (Merck, Darmstadt, Germany) supplemented with 10% fetal bovine serum, 0.1 mM non-essential amino acids, and 1.0 mM sodium pyruvate at 37 °C in a 5% carbon dioxide humidified incubator. Human melanoma cell lines M21 (fluorescence-activated cell sorting selected clone, which stably express αvβ3 integrin; αvβ3 integrin-positive) and M21-L (αvβ3 integrin-negative) originated from prof. Cheresh, Departments of Immunology and Vascular Biology, The Scripps Research Institute, La Jolla, CA, USA and were a kind gift of prof. Decristoforo, Department of Nuclear Medicine, Medical University Innsbruck, Austria. Both M21 and M21-L cells were cultured in Dulbecco’s Modified Eagle Medium (Merck, Darmstadt, Germany) supplemented with 10% fetal bovine serum. All the cells were subcultured and used for experiments at a confluency of 70–90%. Cell uptake assays were performed in 24-well plates cell at cellular confluency of 70–90%. […] Afterwards, the 24-well plates were rinsed with PBS and the cells were lysed by 0.1 M NaOH and measured for radioactivity in the gamma counter. The uptake of [^68Ga]Ga-DFO-c(RGDyK) was calculated as the mean of the percentage of the applied dose ± standard deviation.

[3] = tested on: M21 cells; assay: Cell uptake assay in M21 (αvβ3-positive) cells; assay type: cell-based, human; settings: 7 nM tracer, 500-fold excess (3.5 µM) inhibitor, 60 min, 37 °C
Experimental: as §1

[4] = mouse, in vivo
Experimental: The animal studies were performed using female 8–10-week-old Balb/c and athymic Balb/c nude mice (Envigo, Horst, The Netherlands). The animals were acclimatized to laboratory conditions for 1 week prior to experimental use and housed in a specific-pathogen-free animal facility with free access to animal chow and water. During the experiments, general health and body weight of the animals were monitored. The number of animals was reduced as much as possible (n = 3 per group and time point) for all in vivo experiments. The tracer injection as well as small animal imaging was carried out under 2% isoflurane anesthesia (FORANE, Abbott Laboratories, Abbott Park, IL, USA) to minimize animal suffering and to prevent animal motion. […] The animals were sacrificed by cervical dislocation at 30 and 90 min post-injection (p.i.). Organs and tissues of interest (blood, spleen, pancreas, stomach, intestines, kidneys, liver, heart, lung, muscle, bone, and tumor) were collected, weighed, and measured in the gamma counter. The results were expressed as percentage of injected dose per gram organ (% ID/g).

[5] = set-up: dose or concentration left out as unconfirmed; settings: mouse, in vivo
Experimental: (§2) The animal studies were performed using female 8–10-week-old Balb/c and athymic Balb/c nude mice (Envigo, Horst, The Netherlands). The animals were acclimatized to laboratory conditions for 1 week prior to experimental use and housed in a specific-pathogen-free animal facility with free access to animal chow and water. During the experiments, general health and body weight of the animals were monitored. The number of animals was reduced as much as possible (n = 3 per group and time point) for all in vivo experiments. […]
(§3) For animal tumor models, athymic Balb/c nude mice were subcutaneously injected in the right flank with 5 × 10^6 U-87 MG cells mixed with Matrigel Matrix (Corning, NY, USA) at a 1:1 ratio or in the right and left flank with 5 × 10^6 M21 and M21-L cells. Tumor growth was continuously monitored by caliperation. […]
The animals were sacrificed by cervical dislocation at 30 and 90 min post-injection (p.i.). Organs and tissues of interest (blood, spleen, pancreas, stomach, intestines, kidneys, liver, heart, lung, muscle, bone, and tumor) were collected, weighed, and measured in the gamma counter. The results were expressed as percentage of injected dose per gram organ (% ID/g).

[6] = tested on: U-87 MG tumor; assay: Static PET/CT imaging in U-87 MG tumor-bearing Balb/c nude mice; assay type: in vivo, mouse; settings: U-87 MG tumor mice, 30 and 90 min p.i.
Experimental: as §2, §3
(§4) PET/CT imaging of the experimental animals was performed with an Albira PET/SPECT/CT small animal imaging system (Bruker Biospin Corporation, Woodbridge, CT, USA). […] After reconstruction, the acquired data was viewed and analyzed with the appropriate software (PMOD software, PMOD Technologies Ltd., Zurich, Switzerland and VolView software, Kitware, Clifton Park, NY, USA).

[7] = tested on: M21 tumor; assay: Static PET/CT imaging in M21 (αvβ3-positive) xenografted Balb/c nude mice; assay type: in vivo, mouse; settings: αvβ3 integrin-positive (M21) tumor tissue, 30 and 90 min p.i.
Experimental: as §2, §3, §4

[8] = tested on: M21-L tumor; assay: Static PET/CT imaging in M21-L (αvβ3-negative) xenografted Balb/c nude mice; assay type: in vivo, mouse; settings: αvβ3 integrin-negative (M21-L) tumor tissue, 30 and 90 min p.i.
Experimental: as §2, §3, §4

Question: For `CC(=O)N(O)CCCCCNC(=O)CCC(=O)N(O)CCCCCNC(=O)CCC(=O)N(O)CCCCCNC(=S)Nc1ccc(NC(=S)NCCCC[C@@H]2NC(=O)[C@@H](Cc3ccc(O)cc3)NC(=O)[C@H](CC(=O)O)NC(=O)CNC(=O)[C@H](CCCNC(=N)N)NC2=O)cc1` [[^68Ga]Ga-DFO-c(RGDyK), metal not drawn], which logP [1] is on record?
Answer: -2.01 ± 0.08

Question: And the “Blocking of cell uptake by excess cold NODAGA-c(RGDyK)” value [2]?
Answer: could be blocked with NODAGA-c(RGDyK) by about half

Question: And the “Blocking of cell uptake by excess cold NODAGA-c(RGDyK)” value [3]?
Answer: could only be blocked for the αvβ3-positive cells (M21)

Question: And the tissue uptake at 1.5 h ([4]; Activity concentration in intestines)?
Answer: 1.99 ± 0.01 %ID/g

Question: What about the tissue uptake at 1.5 h ([4]; Activity concentration in kidneys) of the same compound?
Answer: 5.31 ± 0.12 %ID/g

Question: What about the tissue uptake at 1.5 h ([4]; Activity concentration in stomach) of the same compound?
Answer: 1.78 ± 0.05 %ID/g

Question: And the tissue uptake at 0.5 h [5]?
Answer: 3.03 ± 0.62 %ID/g

Question: What about the tissue uptake at 1.5 h [5] of the same compound?
Answer: 1.54 ± 0.56 %ID/g

Question: And the PET/CT tumor visualization [6]?
Answer: clearly visualizing the tumor

Question: What about the PET/CT tumor uptake [7] of the same compound?
Answer: specific uptake of the radiotracer

Question: What about the PET/CT tumor uptake [8] of the same compound?
Answer: no uptake was observed
